# From patent USRE38551E1, “Anticonvulsant enantiomeric amino acid derivatives” (priority 1996, dated 2004)
# Marks after values point to notes of the source that are not given here.
# Tests used:
# [1] = motor impairment (ataxia, gait, stance) observation, rats (po); format: in vivo; conditions: male, Sprague Dawley, in vivo, rat
# In short: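 Mice dosed ip (30, 100, 300 mg/kg; checked at 0.5 and 4 h) and assessed on rotorod; rats dosed po and observed for ataxia, abnormal gait/stance, lost placing response or muscle tone. TD50 with 95% confidence interval determined at time of peak effect in groups of at least eight animals.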
# [2] = target: p-nitroanisole O-demethylase; test: in vitro p-nitroanisole O-demethylase inhibition; format: biochemical; conditions: listed as Compound A, read-out: I50, in vitro p-nitroanisole O-demethylase activity
# Excerpt: This interpretation is supported by the similar effectiveness of Compound A by the MES test, the increased hexobarbital sleep time, and the unaltered liver microsomal enzyme activity. In view of the increased hexobarbital sleep time in the 5-day treated animals, it was thought important to determine the in vitro effect of Compound A on p-nitroanisole O-demethylase activity. […] This may indicate that the potentiation of hexobarbital sleep time is central and not peripheral.
# [3] = tested on: Crl:CoBs CD(SD) rats; test: thirty-day dose range finding study of Compound A in rats; conditions: for BR - BRAIN W/STEM organ to terminal body weight ratio mean / HT - HEART organ to terminal body weight ratio mean / KD - KIDNEY organ to terminal body weight ratio mean / LI - LIVER organ to terminal body weight ratio mean / SP - SPLEEN organ to terminal body weight ratio mean / dilated pelves of kidneys, number of animals / TP - TESTIS/EPIDID organ to terminal body weight ratio mean: 30 days oral
# Procedure: More specifically, 50 male and 50 female Crl:CoBs® CD(SD) selected from 68 male and 68 female rats (4 weeks old) were used as test animals in the study 1. The rats were housed individually in elevated wire mesh cages with food (Purina Certified Rodent Chow® 5002) and tap water (via an automated watering system) available ad libitum. Each batch of feed utilized was analyzed by the manufacturer for concentrations of specified heavy metals, aflatoxin, chlorinated hydrocarbons, organophosphates, and specified nutrients.
# An artificial light cycle of 12 hours light and 12 hours dark was maintained.
# The rats were selected for use on the study using a computer-generated weight randomization procedure and assigned to the following groups:
# Following randomization, the rats were identified with an ear tag bearing a unique permanent identification number. The rats were randomly assigned to treatment groups by first eliminating the ones with extreme body weights (±2 standard deviations from the mean body weight).
# The desired amount of carboxymethyl cellulose was weighed on an appropriate (milligram) balance, transferred to a precalibrated beaker containing two-thirds of the total value of distilled water, and stirred on a magnetic stirrer until a solution formed. Distilled water was then added to final volume and stirred to achieve a 0.5% w/v solution.
# Compound A was first ground into a powder. The desired amount for each dose level as weighed on an appropriate (milligram) balance and transferred into a precalibrated beaker. A small amount (0.5 to 4ml) of 0.5% carboxymethyl cellulose was added to Compound A and mixed to form a paste. […] Fresh suspensions of Compound A were prepared daily and fresh solutions of 0.5% carboxymethyl cellulose were prepared weekly and stored refrigerated.
# Each rat received Compound A at a dosage factor of 10 milliliters per kilogram of body weight via gavage between 9 a.m. and noon each day. The dosing volume for each rat was calculated and adjusted weekly by the computer from the most recently recorded individual body weight.
# Compound A was administered orally.
# All rats were observed twice daily for mortality and moribundity. Clinical observations were made prior to dosing and at 1 and 4 hours after dosing. All signs were recorded as they were observed. Individual body weights were recorded at initiation of treatment, at weekly intervals, and at termination while food consumption was recorded weekly.
# Following 30 or 31 days of treatment, surviving rats were weighed, anesthetized, and exsanguinated under sodium pentobarbital anesthesia. Complete necropsies were performed on each rat by appropriately trained personnel using procedures approved by board-certified pathologists. Necropsy included examination of the following:
# Various organs were weighted and compared to the control, e.g., brain with stem, heart, spleen, kidney, liver, sex organs.
# [4] = tested on: liver; conditions: rats, p.o., short term
# [5] = female, group 5, 1000 mg/kg/day
compound,measurement,setting,value
"CC(=O)NC(C)C(=O)NCc1ccccc1 (racemic) [compound 1, N-Acetyl-D,L-alanine-N′-benzylamide]",ED50,"[1]; oral (Table 6), read-out: RAT ED50 Neurotox",> 1000 mg/kg
same,TD50,"[1]; po, at time of peak effect, read-out: tox, TD50",> 1000 mg/kg
same,IC50,[2],5 mM
same,mean kidney weight,[3]; Group 5 males (1000 mg/kg/day × 30 days),small increase
same,BR - BRAIN W/STEM organ to terminal body weight ratio mean,"[3]; female, group 2, 30 mg/kg/day",.887%
same,HT - HEART organ to terminal body weight ratio mean,"[3]; female, group 2, 30 mg/kg/day",.372%
same,KD - KIDNEY organ to terminal body weight ratio mean,"[3]; female, group 2, 30 mg/kg/day",.773%
same,LI - LIVER organ to terminal body weight ratio mean,"[3]; female, group 2, 30 mg/kg/day",3.122%
same,SP - SPLEEN organ to terminal body weight ratio mean,"[3]; female, group 2, 30 mg/kg/day",.204%
same,BR - BRAIN W/STEM organ to terminal body weight ratio mean,"[3]; female, group 3, 100 mg/kg/day",.899%
same,HT - HEART organ to terminal body weight ratio mean,"[3]; female, group 3, 100 mg/kg/day",.345%
same,KD - KIDNEY organ to terminal body weight ratio mean,"[3]; female, group 3, 100 mg/kg/day",.768%
same,LI - LIVER organ to terminal body weight ratio mean,"[3]; female, group 3, 100 mg/kg/day",3.166%
same,SP - SPLEEN organ to terminal body weight ratio mean,"[3]; female, group 3, 100 mg/kg/day",.200%
same,BR - BRAIN W/STEM organ to terminal body weight ratio mean,"[3]; female, group 4, 300 mg/kg/day",.934%
same,HT - HEART organ to terminal body weight ratio mean,"[3]; female, group 4, 300 mg/kg/day",.373%
same,KD - KIDNEY organ to terminal body weight ratio mean,"[3]; female, group 4, 300 mg/kg/day",.770%
same,LI - LIVER organ to terminal body weight ratio mean,"[3]; female, group 4, 300 mg/kg/day",3.172%
same,SP - SPLEEN organ to terminal body weight ratio mean,"[3]; female, group 4, 300 mg/kg/day",.198%
same,BR - BRAIN W/STEM organ to terminal body weight ratio mean,[3]; [5],.891%
same,HT - HEART organ to terminal body weight ratio mean,[3]; [5],.347%
same,KD - KIDNEY organ to terminal body weight ratio mean,[3]; [5],.763%
same,LI - LIVER organ to terminal body weight ratio mean,[3]; [5],3.739* %
same,SP - SPLEEN organ to terminal body weight ratio mean,[3]; [5],.189%
same,"dilated pelves of kidneys, number of animals","[3]; females, Group 5 (1000 mg/kg/day)",two
same,BR - BRAIN W/STEM organ to terminal body weight ratio mean,"[3]; male, group 2, 30 mg/kg/day",.593%
same,HT - HEART organ to terminal body weight ratio mean,"[3]; male, group 2, 30 mg/kg/day",.313%
same,KD - KIDNEY organ to terminal body weight ratio mean,"[3]; male, group 2, 30 mg/kg/day",.719%
same,LI - LIVER organ to terminal body weight ratio mean,"[3]; male, group 2, 30 mg/kg/day",2.849%
same,SP - SPLEEN organ to terminal body weight ratio mean,"[3]; male, group 2, 30 mg/kg/day",.172%
same,TP - TESTIS/EPIDID organ to terminal body weight ratio mean,"[3]; male, group 2, 30 mg/kg/day",1.265%
same,BR - BRAIN W/STEM organ to terminal body weight ratio mean,"[3]; male, group 3, 100 mg/kg/day",.599%
same,HT - HEART organ to terminal body weight ratio mean,"[3]; male, group 3, 100 mg/kg/day",.314%
same,KD - KIDNEY organ to terminal body weight ratio mean,"[3]; male, group 3, 100 mg/kg/day",.694%
same,LI - LIVER organ to terminal body weight ratio mean,"[3]; male, group 3, 100 mg/kg/day",3.059* %
same,SP - SPLEEN organ to terminal body weight ratio mean,"[3]; male, group 3, 100 mg/kg/day",.166%
same,TP - TESTIS/EPIDID organ to terminal body weight ratio mean,"[3]; male, group 3, 100 mg/kg/day",1.219%
same,"dilated pelves of kidneys, number of animals","[3]; male, group 3, 100 mg/kg/day",one
same,BR - BRAIN W/STEM organ to terminal body weight ratio mean,"[3]; male, group 4, 300 mg/kg/day",.581%
same,HT - HEART organ to terminal body weight ratio mean,"[3]; male, group 4, 300 mg/kg/day",.328%
same,KD - KIDNEY organ to terminal body weight ratio mean,"[3]; male, group 4, 300 mg/kg/day",.695%
same,LI - LIVER organ to terminal body weight ratio mean,"[3]; male, group 4, 300 mg/kg/day",3.101* %
same,SP - SPLEEN organ to terminal body weight ratio mean,"[3]; male, group 4, 300 mg/kg/day",.163%
same,TP - TESTIS/EPIDID organ to terminal body weight ratio mean,"[3]; male, group 4, 300 mg/kg/day",1.212%
same,"dilated pelves of kidneys, number of animals","[3]; male, group 4, 300 mg/kg/day",one
same,BR - BRAIN W/STEM organ to terminal body weight ratio mean,"[3]; male, group 5, 1000 mg/kg/day",.571%
same,HT - HEART organ to terminal body weight ratio mean,"[3]; male, group 5, 1000 mg/kg/day",.343%
same,KD - KIDNEY organ to terminal body weight ratio mean,"[3]; male, group 5, 1000 mg/kg/day",.770%
same,LI - LIVER organ to terminal body weight ratio mean,"[3]; male, group 5, 1000 mg/kg/day",3.683* %
same,SP - SPLEEN organ to terminal body weight ratio mean,"[3]; male, group 5, 1000 mg/kg/day",.176%
same,TP - TESTIS/EPIDID organ to terminal body weight ratio mean,"[3]; male, group 5, 1000 mg/kg/day",1.202%
same,mean liver weight,"[3]; males of Groups 4 (300 mg/kg/day × 30 days) and 5 (1000 mg/kg/day × 30 days), Group 5 females",increased
same,"dilated pelves of kidneys, number of animals","[3]; males, Group 5 (1000 mg/kg/day)",three
same,Safety Ratio daily dose; MES,"[3]; rat, oral, 100 mg/kg/day × 30 days vs oral MES ED50",2.1
same,"safety ratio, dose to signs of liver enlargement following 30 days medication relative to oral anti-convulsant dose","[3]; rats, threshold daily dose 100 mg/kg",2.1
"COC[C@@H](NC(C)=O)C(=O)NCc1ccccc1 [Ex. 1, 2, (R)-N-Benzyl-2-Acetamide-3-methoxypropionamide]",liver necrosis,[4]; 3.9 or 100 mg/kg daily,no evidence of causing liver necrosis
same,liability for serious drug-drug interactions and liver toxicity (battery of liver enzyme studies),[4],relatively low
